{"source": "PubChem BioAssay (NCI)", "assay_in_all_cases": "NCI-60 cell line screen, 48 h", "key": {"MOLT-4 leukemia": {"system": "MOLT-4 leukemia"}, "SN12C renal": {"system": "SN12C renal"}, "IGROV1 ovarian": {"system": "IGROV1 ovarian"}, "SK-MEL-28 melanoma": {"system": "SK-MEL-28 melanoma"}, "SF-539 CNS": {"system": "SF-539 CNS"}, "LOX IMVI melanoma": {"system": "LOX IMVI melanoma"}, "UACC-62 melanoma": {"system": "UACC-62 melanoma"}, "NCI-H460 lung": {"system": "NCI-H460 lung"}, "UO-31 renal": {"system": "UO-31 renal"}, "RPMI-8226 leukemia": {"system": "RPMI-8226 leukemia"}, "HS 578T breast": {"system": "HS 578T breast"}, "SK-MEL-5 melanoma": {"system": "SK-MEL-5 melanoma"}, "SNB-75 CNS": {"system": "SNB-75 CNS"}, "A498 renal": {"system": "A498 renal"}, "PC-3 prostate": {"system": "PC-3 prostate"}, "T-47D breast": {"system": "T-47D breast"}, "MALME-3M melanoma": {"system": "MALME-3M melanoma"}, "SF-268 CNS": {"system": "SF-268 CNS"}, "HL-60(TB) leukemia": {"system": "HL-60(TB) leukemia"}, "DU-145 prostate": {"system": "DU-145 prostate"}, "SR leukemia": {"system": "SR leukemia"}, "MDA-MB-435": {"system": "MDA-MB-435"}, "A549 NSCLC": {"system": "A549 NSCLC"}, "HT29 colon": {"system": "HT29 colon"}, "EKVX NSCLC": {"system": "EKVX NSCLC"}, "BT-549 breast": {"system": "BT-549 breast"}, "MCF7 breast": {"system": "MCF7 breast"}, "KM12 colon": {"system": "KM12 colon"}}, "note": "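Cultured in 96-well plates, cells were exposed to test compound for 48 hours across five concentrations. Abbreviation: GI50, concentration required for 50% inhibition of growth. TGI denotes the concentration required for complete inhibition of growth.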"}
{"smiles": "CCOC(=O)c1ccc2[nH]c(O)c(C(=Nc3ccc(N(C)C(=O)CN4CCN(C)CC4)cc3)c3ccccc3)c2c1", "values": [{"measurement": "GI50", "setting": "MOLT-4 leukemia", "value": 0.254, "unit": "µM"}, {"measurement": "TGI", "setting": "MOLT-4 leukemia", "value": 2, "unit": "µM"}, {"measurement": "GI50", "setting": "SN12C renal", "value": 0.144, "unit": "µM"}, {"measurement": "TGI", "setting": "SN12C renal", "value": 1.54, "unit": "µM"}, {"measurement": "GI50", "setting": "IGROV1 ovarian", "value": 0.111, "unit": "µM"}, {"measurement": "TGI", "setting": "IGROV1 ovarian", "value": 1.24, "unit": "µM"}, {"measurement": "GI50", "setting": "SK-MEL-28 melanoma", "value": 1.11, "unit": "µM"}, {"measurement": "TGI", "setting": "SK-MEL-28 melanoma", "value": 2.48, "unit": "µM"}, {"measurement": "GI50", "setting": "SF-539 CNS", "value": 0.247, "unit": "µM"}, {"measurement": "TGI", "setting": "SF-539 CNS", "value": 0.979, "unit": "µM"}, {"measurement": "GI50", "setting": "LOX IMVI melanoma", "value": 0.3, "unit": "µM"}, {"measurement": "TGI", "setting": "LOX IMVI melanoma", "value": 1.41, "unit": "µM"}, {"measurement": "GI50", "setting": "UACC-62 melanoma", "value": 1.41, "unit": "µM"}, {"measurement": "TGI", "setting": "UACC-62 melanoma", "value": 3.09, "unit": "µM"}, {"measurement": "GI50", "setting": "NCI-H460 lung", "value": 0.81, "unit": "µM"}, {"measurement": "TGI", "setting": "NCI-H460 lung", "value": 2.45, "unit": "µM"}, {"measurement": "GI50", "setting": "UO-31 renal", "value": 0.323, "unit": "µM"}, {"measurement": "TGI", "setting": "UO-31 renal", "value": 1.56, "unit": "µM"}, {"measurement": "GI50", "setting": "RPMI-8226 leukemia", "value": 0.598, "unit": "µM"}, {"measurement": "TGI", "setting": "RPMI-8226 leukemia", "value": 3.55, "unit": "µM"}, {"measurement": "GI50", "setting": "HS 578T breast", "value": 0.0644, "unit": "µM"}, {"measurement": "TGI", "setting": "HS 578T breast", "value": 1.01, "unit": "µM"}, {"measurement": "GI50", "setting": "SK-MEL-5 melanoma", "value": 0.426, "unit": "µM"}, {"measurement": "TGI", "setting": "SK-MEL-5 melanoma", "value": 1.58, "unit": "µM"}, {"measurement": "GI50", "setting": "SNB-75 CNS", "value": 0.178, "unit": "µM"}, {"measurement": "TGI", "setting": "SNB-75 CNS", "value": 2.06, "unit": "µM"}, {"measurement": "GI50", "setting": "A498 renal", "value": 0.162, "unit": "µM"}, {"measurement": "TGI", "setting": "A498 renal", "value": 1.06, "unit": "µM"}, {"measurement": "GI50", "setting": "PC-3 prostate", "value": 0.467, "unit": "µM"}, {"measurement": "TGI", "setting": "PC-3 prostate", "value": 2.37, "unit": "µM"}, {"measurement": "GI50", "setting": "T-47D breast", "value": 0.979, "unit": "µM"}, {"measurement": "TGI", "setting": "T-47D breast", "value": 3.31, "unit": "µM"}, {"measurement": "GI50", "setting": "MALME-3M melanoma", "value": 0.454, "unit": "µM"}, {"measurement": "TGI", "setting": "MALME-3M melanoma", "value": 1.84, "unit": "µM"}, {"measurement": "GI50", "setting": "SF-268 CNS", "value": 0.413, "unit": "µM"}, {"measurement": "TGI", "setting": "SF-268 CNS", "value": 2.03, "unit": "µM"}, {"measurement": "GI50", "setting": "HL-60(TB) leukemia", "value": 0.356, "unit": "µM"}, {"measurement": "TGI", "setting": "HL-60(TB) leukemia", "value": 1.15, "unit": "µM"}, {"measurement": "GI50", "setting": "DU-145 prostate", "value": 0.49, "unit": "µM"}, {"measurement": "TGI", "setting": "DU-145 prostate", "value": 2.1, "unit": "µM"}, {"measurement": "GI50", "setting": "SR leukemia", "value": 0.121, "unit": "µM"}, {"measurement": "TGI", "setting": "SR leukemia", "value": 0.901, "unit": "µM"}, {"measurement": "GI50", "setting": "MDA-MB-435", "value": 0.667, "unit": "µM"}, {"measurement": "TGI", "setting": "MDA-MB-435", "value": 2, "unit": "µM"}, {"measurement": "GI50", "setting": "A549 NSCLC", "value": 0.416, "unit": "µM"}, {"measurement": "TGI", "setting": "A549 NSCLC", "value": 2.73, "unit": "µM"}, {"measurement": "GI50", "setting": "HT29 colon", "value": 0.185, "unit": "µM"}, {"measurement": "TGI", "setting": "HT29 colon", "value": 8.87, "unit": "µM"}, {"measurement": "GI50", "setting": "EKVX NSCLC", "value": 0.955, "unit": "µM"}, {"measurement": "TGI", "setting": "EKVX NSCLC", "value": 2.74, "unit": "µM"}, {"measurement": "GI50", "setting": "BT-549 breast", "value": 1.04, "unit": "µM"}, {"measurement": "TGI", "setting": "BT-549 breast", "value": 2.32, "unit": "µM"}, {"measurement": "GI50", "setting": "MCF7 breast", "value": 0.418, "unit": "µM"}, {"measurement": "TGI", "setting": "MCF7 breast", "value": 1.99, "unit": "µM"}, {"measurement": "GI50", "setting": "KM12 colon", "value": 0.0172, "unit": "µM"}]}
